Data: patent US5387670A, “Antibiotic, deoxymulundocandin, a process for its production and its use as medicament” (Hoechst Aktiengesellschaft, priority 1990, dated 1995)
Numbered stars: 1 amine (or outer) side, 2 acyl side, 3 side chain; on linkers, the order of the positions; unused ones are H or OH. Bridge positions count the residues as written; N and C are the ends. Square brackets hold non-standard residues; d marks the D form. Peptide text beside a SMILES is read from it. * marks the point of attachment. Orn(4R-OH,5R-OH) = O=C([C@H](C[C@@H](O)[C@@H](O)N[*:3])N[*:1])[*:2]; Pro(3S-OH,4S-Me) = C[C@H]1CN[C@H](C(=O)O)[C@H]1O; hTyr(3R-OH) = N[C@H](C(=O)O)[C@H](O)Cc1ccc(O)cc1; Hyp = O=C(O)[C@@H]1C[C@@H](O)CN1; X1 = CCC(C)CCCCCCCCCCC(=O)*

Experiments:
Candida albicans = assay: Minimum inhibitory concentration; assay type: cell-based
Cladosporium species = assay: Minimum inhibitory concentration; assay type: cell-based
Botrytis cinerea 47 = assay: Minimum inhibitory concentration; assay type: cell-based
Cercospora beticola 71 = assay: Minimum inhibitory concentration; assay type: cell-based
Botrytis cinerea 212 = assay: Minimum inhibitory concentration; assay type: cell-based
Botrytis cinerea 211 = assay: Minimum inhibitory concentration; assay type: cell-based
Microsporum canis = assay: Minimum inhibitory concentration; assay type: cell-based
Botrytis cinerea 57 = assay: Minimum inhibitory concentration; assay type: cell-based
Saccharomycis cerevisiae = assay: Minimum inhibitory concentration; assay type: cell-based
Microsporum gypseum = assay: Minimum inhibitory concentration; assay type: cell-based
[1] = Solubility (physicochemical properties)
Description: Physicochemical Properties of the New Antibiotic Deoxymulundocandin

[2] = system: Trichophyton mentagrophytes; assay: Minimum inhibitory concentration; assay type: cell-based
Aspergillus niger = assay: Minimum inhibitory concentration; assay type: cell-based
Penicillium italicum = assay: Minimum inhibitory concentration; assay type: cell-based

Which “Minimum Inhibitory Concentration” value (Candida albicans) does the source give for `CCC(C)CCCCCCCCCCC(=O)N[C@H]1C[C@@H](O)[C@@H](O)NC(=O)[C@@H]2[C@@H](O)[C@@H](C)CN2C(=O)[C@H](CO)NC(=O)[C@H]([C@H](O)Cc2ccc(O)cc2)NC(=O)[C@@H]2C[C@@H](O)CN2C(=O)[C@H]([C@@H](C)O)NC1=O` (stereo partly drawn) [Deoxymulundocandin] (X1-[Orn(4R-OH,5R-OH)]T[Hyp][hTyr(3R-OH)]S[Pro(3S-OH,4S-Me)]; lactam 1-C) here?
Its value is 1.5 micrograms per milliliter.

What about the “Minimum Inhibitory Concentration” value (Cladosporium species) of the same compound?
Its value is 0.75 micrograms per milliliter.

What about the “Minimum Inhibitory Concentration” value (Botrytis cinerea 47) of the same compound?
Its value is 6.25 micrograms per milliliter.

What about the “Minimum Inhibitory Concentration” value (Cercospora beticola 71) of the same compound?
Its value is 6.25 micrograms per milliliter.

And the “Minimum Inhibitory Concentration” value (Botrytis cinerea 212)?
The value was 25 micrograms per milliliter.

What about the “Minimum Inhibitory Concentration” value (Botrytis cinerea 211) of the same compound?
Its value is 25 micrograms per milliliter.

What about the “Minimum Inhibitory Concentration” value (Microsporum canis) of the same compound?
The value was < 0.18 micrograms per milliliter.

And the “Minimum Inhibitory Concentration” value (Botrytis cinerea 57)?
The value was 50 micrograms per milliliter.

And the “Minimum Inhibitory Concentration” value (Saccharomycis cerevisiae)?
The value was 3.1 micrograms per milliliter.

And the “Minimum Inhibitory Concentration” value (Microsporum gypseum)?
Its value is 0.18 micrograms per milliliter.

What about the Solubility ([1]; in methanol, dimethyl formamide, dimethyl sulfoxide) of the same compound?
Its Solubility is “Soluble”.

And the Solubility ([1]; in water, acetone, acetonitrile, ethyl acetate, carbon tetrachloride, chloroform, benzene, petroleum ether)?
The Solubility was “sparingly soluble”.

What about the “Minimum Inhibitory Concentration” value [2] of the same compound?
The value was < 0.18 micrograms per milliliter.

And the “Minimum Inhibitory Concentration” value (Aspergillus niger)?
Its value is 3.1 micrograms per milliliter.

And the “Minimum Inhibitory Concentration” value (Penicillium italicum)?
Its value is 25 micrograms per milliliter.
